Source: ChEMBL document CHEMBL1671827, “Discovery of MK-5046, a Potent, Selective Bombesin Receptor Subtype-3 Agonist for the Treatment of Obesity” (ACS Med Chem Lett, 2011)
The source made the active and inactive calls. The calls are words filed in the database; no cut-off is given here.

Assays:
[1] = target: T1, Bombesin receptor subtype-3 (Homo sapiens, UniProt P32247); assay: Displacement of [125I]-[D-Tyr6,beta-Ala11,Phe13,Nle14]-Bombesin (6-14) from human BRS-3
T1 sequence (P32247 whole entry): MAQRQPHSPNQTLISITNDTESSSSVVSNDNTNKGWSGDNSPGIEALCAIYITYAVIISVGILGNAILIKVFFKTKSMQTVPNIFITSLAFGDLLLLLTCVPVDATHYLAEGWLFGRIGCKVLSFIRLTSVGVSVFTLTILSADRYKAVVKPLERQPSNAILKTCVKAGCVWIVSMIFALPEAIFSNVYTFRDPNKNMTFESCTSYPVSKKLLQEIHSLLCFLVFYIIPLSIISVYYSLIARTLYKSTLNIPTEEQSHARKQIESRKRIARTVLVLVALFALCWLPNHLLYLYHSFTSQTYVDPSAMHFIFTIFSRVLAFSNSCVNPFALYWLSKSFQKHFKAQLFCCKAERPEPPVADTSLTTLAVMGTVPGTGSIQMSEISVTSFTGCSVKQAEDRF

[2] = Half life in rat liver microsomes
[3] = Fraction unbound in rat plasma at 1 uM; format: ADME, cell-free
[4] = Faction unbound in human plasma at 1 uM; format: ADME, cell-free
[5] = target: Voltage-gated inwardly rectifying potassium channel KCNH2 (Homo sapiens, UniProt Q12809); assay: Binding affinity to human ERG
[6] = Plasma clearance in rat at 1 mg/kg, iv; format: ADME, organism-based; parameters: dose 1 mg/kg, route intravenous
[7] = target: T1, Bombesin receptor subtype-3; assay: Agonist activity at human BRS-3 expressed in HEK293AEQ cells assessed as induction of intracellular calcium mobilization by aequorin bioluminescence assay; format: functional, cell-based
[8] = Plasma clearance in dog at 0.5 mg/kg, iv; format: ADME, organism-based, Canis lupus familiaris; parameters: dose 0.5 mg/kg, route intravenous
[9] = Half life in dog at 0.5 mg/kg, iv; format: ADME, organism-based, Canis lupus familiaris; parameters: dose 0.5 mg/kg, route intravenous; settings: in vivo
[10] = Oral bioavailability in dog at 1 mg/kg; format: ADME, organism-based, Canis lupus familiaris; settings: in vivo
Neuromedin-B receptor = Neuromedin-B receptor (Homo sapiens, UniProt P28336); assay: Inhibition of human NMBR
[11] = target: Gastrin-releasing peptide receptor (Homo sapiens, UniProt P30550); assay: Inhibition of human GRPR
[12] = Inhibition of human calcium channel diltiazem binding site
[13] = target: T2, Nuclear receptor subfamily 1 group I member 2 (Homo sapiens, UniProt O75469)
T2 sequence (O75469 whole entry): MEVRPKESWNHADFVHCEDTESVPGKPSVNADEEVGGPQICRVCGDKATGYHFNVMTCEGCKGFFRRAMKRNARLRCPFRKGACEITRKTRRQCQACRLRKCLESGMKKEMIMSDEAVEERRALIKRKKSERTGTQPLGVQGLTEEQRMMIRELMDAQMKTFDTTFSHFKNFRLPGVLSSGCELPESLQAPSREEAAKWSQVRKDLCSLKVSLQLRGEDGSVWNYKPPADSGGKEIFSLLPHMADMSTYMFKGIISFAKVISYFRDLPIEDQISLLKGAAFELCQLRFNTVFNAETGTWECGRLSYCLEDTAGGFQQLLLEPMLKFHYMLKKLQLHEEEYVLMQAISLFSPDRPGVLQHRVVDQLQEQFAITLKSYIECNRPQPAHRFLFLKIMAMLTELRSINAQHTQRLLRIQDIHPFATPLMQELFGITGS

[14] = Oral bioavailability in rhesus monkey at 1 mg/kg; format: ADME, organism-based, Macaca mulatta; settings: in vivo
[15] = Oral bioavailability in rat at 2 mg/kg; format: ADME, organism-based; settings: in vivo
Mus musculus [16] = organism: Mus musculus; assay: Antiobesity activity in wild type mouse assessed as increase of fasting metabolic rate; format: functional, organism-based
[17] = Binding affinity to dog BRS-3; parameters: species or system Canis lupus familiaris
[18] = Volume of distribution at steady state in mouse at 1 mg/kg, iv; format: ADME, organism-based; parameters: dose 1 mg/kg, route intravenous; settings: in vivo, read-out: Vdss
[19] = Agonist activity at rhesus monkey BRS-3 expressed in HEK293AEQ cells assessed as induction of intracellular calcium mobilization by aequorin bioluminescence assay; format: functional, cell-based; settings: Macaca mulatta
[20] = Plasma clearance in mouse at 1 mg/kg, iv; format: ADME, organism-based; parameters: dose 1 mg/kg, route intravenous
Mus musculus [21] = organism: Mus musculus; assay: Antiobesity activity in BRS3 deficient mouse assessed as increase of fasting metabolic rate; format: functional, organism-based
Mus musculus [22] = assay: Antiobesity activity in eDIO mouse assessed as reduction of body weight at 25 mg/kg, sc relative to control; format: functional; parameters: scale not given: the % may be the effect or the level left; settings: route subcutaneous
[23] = target: T3, Bombesin receptor subtype-3 (Rattus norvegicus, UniProt Q8K418); assay: Agonist activity at rat BRS-3 expressed in HEK293AEQ cells assessed as induction of intracellular calcium mobilization by aequorin bioluminescence assay; format: functional, cell-based
T3 sequence (Q8K418 whole entry): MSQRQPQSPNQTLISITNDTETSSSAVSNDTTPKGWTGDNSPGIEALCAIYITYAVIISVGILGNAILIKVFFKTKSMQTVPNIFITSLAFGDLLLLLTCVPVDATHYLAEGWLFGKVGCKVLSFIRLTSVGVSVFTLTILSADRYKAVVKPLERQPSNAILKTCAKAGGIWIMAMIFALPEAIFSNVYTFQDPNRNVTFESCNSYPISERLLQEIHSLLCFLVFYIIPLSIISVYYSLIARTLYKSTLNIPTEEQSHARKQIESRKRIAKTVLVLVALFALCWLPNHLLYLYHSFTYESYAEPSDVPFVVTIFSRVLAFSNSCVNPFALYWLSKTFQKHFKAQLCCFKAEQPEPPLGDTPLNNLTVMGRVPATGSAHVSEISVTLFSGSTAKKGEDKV

[24] = Agonist activity at dog BRS-3 expressed in HEK293AEQ cells assessed as induction of intracellular calcium mobilization by aequorin bioluminescence assay; format: functional, cell-based; settings: Canis lupus familiaris
[25] = Plasma clearance in rhesus monkey at 0.5 mg/kg, iv; format: ADME, organism-based, Macaca mulatta; parameters: dose 0.5 mg/kg, route intravenous
[26] = Oral bioavailability in mouse at 2 mg/kg, po; format: ADME, organism-based; settings: in vivo
[27] = Agonist activity at rhesus monkey BRS-3 expressed in HEK293AEQ cells assessed as induction of intracellular calcium mobilization by aequorin bioluminescence assay relative to dY peptide; settings: Macaca mulatta
Mus musculus [28] = organism: Mus musculus; assay: Antiobesity activity in wild type mouse assessed as reduction of food intake; format: functional, organism-based
[29] = Volume of distribution at steady state in dog at 0.5 mg/kg, iv; format: ADME, organism-based, Canis lupus familiaris; parameters: dose 0.5 mg/kg, route intravenous; settings: in vivo, read-out: Vdss
[30] = Half life in rhesus monkey at 0.5 mg/kg, iv; format: ADME, organism-based, Macaca mulatta; parameters: dose 0.5 mg/kg, route intravenous; settings: in vivo
Mus musculus [31] = organism: Mus musculus; assay: Antiobesity activity in BRS3 deficient mouse assessed as reduction of food intake; format: functional, organism-based
[32] = Half life in rat at 1 mg/kg, iv; format: ADME, organism-based; parameters: dose 1 mg/kg, route intravenous; settings: in vivo
[33] = target: T4, Bombesin receptor subtype-3 (Mus musculus, UniProt O54798); assay: Displacement of [3H]Bag-3 from mouse BRS-3
T4 sequence (O54798 whole entry): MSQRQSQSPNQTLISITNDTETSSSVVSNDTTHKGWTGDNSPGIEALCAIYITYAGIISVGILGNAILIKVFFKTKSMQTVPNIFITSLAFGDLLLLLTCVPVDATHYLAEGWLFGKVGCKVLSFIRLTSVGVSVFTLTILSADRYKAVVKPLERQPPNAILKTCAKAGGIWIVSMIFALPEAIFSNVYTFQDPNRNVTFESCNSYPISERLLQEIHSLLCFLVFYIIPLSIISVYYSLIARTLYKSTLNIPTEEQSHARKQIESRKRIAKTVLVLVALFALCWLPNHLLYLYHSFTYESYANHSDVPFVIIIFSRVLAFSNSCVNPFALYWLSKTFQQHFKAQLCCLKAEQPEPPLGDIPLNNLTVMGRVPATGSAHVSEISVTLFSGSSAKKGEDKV

[34] = Binding affinity to rhesus monkey BRS-3; parameters: species or system Macaca mulatta
Mus musculus [35] = assay: Antiobesity activity in eDIO mouse assessed as reduction of body weight at 25 mg/kg, sc after 14 days; format: functional, organism-based; parameters: dose 25 mg/kg
[36] = Agonist activity at dog BRS-3 expressed in HEK293AEQ cells assessed as induction of intracellular calcium mobilization by aequorin bioluminescence assay relative to dY peptide; settings: Canis lupus familiaris
[37] = Volume of distribution at steady state in rhesus monkey at 0.5 mg/kg, iv; format: ADME, organism-based, Macaca mulatta; parameters: dose 0.5 mg/kg, route intravenous; settings: in vivo, read-out: Vdss
[38] = target: T4, Bombesin receptor subtype-3; assay: Agonist activity at mouse BRS-3 expressed in HEK293AEQ cells assessed as induction of intracellular calcium mobilization by aequorin bioluminescence assay; format: functional, cell-based
[39] = Half life in mouse at 1 mg/kg, iv; format: ADME, organism-based; parameters: dose 1 mg/kg, route intravenous; settings: in vivo
[40] = target: T3, Bombesin receptor subtype-3; assay: Displacement of [3H]Bag-3 from rat BRS-3
[41] = Volume of distribution at steady state in rat at 1 mg/kg, iv; format: ADME, organism-based; parameters: dose 1 mg/kg, route intravenous; settings: in vivo, read-out: Vdss

Sequence of Voltage-gated inwardly rectifying potassium channel KCNH2 (Q12809 whole entry): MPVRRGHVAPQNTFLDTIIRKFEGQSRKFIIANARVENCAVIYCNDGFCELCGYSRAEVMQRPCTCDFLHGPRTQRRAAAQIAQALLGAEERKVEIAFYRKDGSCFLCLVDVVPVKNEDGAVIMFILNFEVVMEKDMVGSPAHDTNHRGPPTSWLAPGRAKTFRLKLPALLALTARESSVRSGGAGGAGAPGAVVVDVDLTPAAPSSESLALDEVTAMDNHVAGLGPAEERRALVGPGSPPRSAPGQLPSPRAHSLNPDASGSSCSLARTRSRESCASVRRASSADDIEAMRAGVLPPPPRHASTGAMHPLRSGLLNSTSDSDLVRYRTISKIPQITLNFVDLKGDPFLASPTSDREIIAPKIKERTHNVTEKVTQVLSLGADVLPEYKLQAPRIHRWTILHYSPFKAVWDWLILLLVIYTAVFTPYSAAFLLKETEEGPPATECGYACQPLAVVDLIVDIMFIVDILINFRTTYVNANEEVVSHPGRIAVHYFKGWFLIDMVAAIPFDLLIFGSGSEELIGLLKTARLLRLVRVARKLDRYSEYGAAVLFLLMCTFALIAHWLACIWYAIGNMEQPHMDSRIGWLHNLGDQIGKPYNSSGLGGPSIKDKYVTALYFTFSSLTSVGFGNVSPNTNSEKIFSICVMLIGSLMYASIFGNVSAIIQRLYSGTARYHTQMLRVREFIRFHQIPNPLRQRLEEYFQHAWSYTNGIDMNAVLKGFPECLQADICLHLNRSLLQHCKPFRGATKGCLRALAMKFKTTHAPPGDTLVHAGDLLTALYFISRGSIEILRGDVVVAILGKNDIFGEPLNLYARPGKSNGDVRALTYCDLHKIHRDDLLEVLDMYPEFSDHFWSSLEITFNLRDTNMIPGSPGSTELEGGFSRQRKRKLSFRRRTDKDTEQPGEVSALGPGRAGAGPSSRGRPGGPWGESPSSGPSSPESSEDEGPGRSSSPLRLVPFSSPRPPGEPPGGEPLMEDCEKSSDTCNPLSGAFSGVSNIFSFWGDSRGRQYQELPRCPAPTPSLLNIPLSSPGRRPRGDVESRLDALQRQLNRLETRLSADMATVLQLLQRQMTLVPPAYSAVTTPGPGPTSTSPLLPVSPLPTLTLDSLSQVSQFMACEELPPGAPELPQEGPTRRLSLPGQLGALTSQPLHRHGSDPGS
Sequence of Neuromedin-B receptor (P28336 whole entry): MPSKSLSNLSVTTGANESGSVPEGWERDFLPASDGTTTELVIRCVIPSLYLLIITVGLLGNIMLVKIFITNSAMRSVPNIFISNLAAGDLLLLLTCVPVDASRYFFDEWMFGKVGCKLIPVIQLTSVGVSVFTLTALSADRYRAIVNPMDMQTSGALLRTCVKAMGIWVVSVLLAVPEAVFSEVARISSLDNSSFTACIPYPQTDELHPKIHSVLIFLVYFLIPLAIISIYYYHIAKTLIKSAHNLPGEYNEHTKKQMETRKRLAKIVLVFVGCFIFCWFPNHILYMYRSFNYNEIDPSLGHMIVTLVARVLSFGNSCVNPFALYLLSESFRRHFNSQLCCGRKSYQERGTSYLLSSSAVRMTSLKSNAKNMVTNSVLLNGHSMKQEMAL
Sequence of Gastrin-releasing peptide receptor (P30550 whole entry): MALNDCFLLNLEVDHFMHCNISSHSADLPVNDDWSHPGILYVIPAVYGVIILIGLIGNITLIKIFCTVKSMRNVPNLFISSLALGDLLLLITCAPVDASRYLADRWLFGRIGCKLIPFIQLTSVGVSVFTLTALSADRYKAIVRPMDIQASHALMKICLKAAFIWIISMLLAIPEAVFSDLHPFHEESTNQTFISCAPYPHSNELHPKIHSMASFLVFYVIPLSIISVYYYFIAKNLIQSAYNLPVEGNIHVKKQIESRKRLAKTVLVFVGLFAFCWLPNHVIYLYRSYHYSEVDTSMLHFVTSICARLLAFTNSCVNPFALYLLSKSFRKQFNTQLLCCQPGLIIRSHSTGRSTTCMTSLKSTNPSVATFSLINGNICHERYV

## CC(C)(C)Cc1c[nH]c(C(C)(O)Cc2ccc(-c3ccc(F)cn3)cc2)n1 (stereo not drawn)
[1]
  IC50: 82 nM
[2]
  half-life: 1 min
[3]
  fraction unbound at 1 µM: 0.2
[4]
  fraction unbound at 1 µM: 0.001
[5]
  Ki: 5900 nM
[6]
  clearance: 14 mL/min/kg
[7]
  EC50: 220 nM

## CC(O)(Cc1nc(CC2(C(F)(F)F)CC2)c[nH]1)c1ccc(-n2cccn2)cc1 (stereo not drawn)
[8]
  clearance: 10 mL/min/kg
[1]
  IC50: 11 nM
[9]
  half-life: 18 min
[4]
  fraction unbound at 1 µM: 0.032
[6]
  clearance: 52 mL/min/kg
[10]
  bioavailability: 29%
[7]
  EC50: 14 nM

## CC(C)(C)Cc1c[nH]c(CC(C)(O)c2ccc(-c3ccc(F)cn3)cc2)n1 (stereo not drawn)
[1]
  IC50: 17 nM
[2]
  half-life: 5 min
Neuromedin-B receptor
  IC50: > 10000 nM
[3]
  fraction unbound at 1 µM: 0.2
[4]
  fraction unbound at 1 µM: 0.004
[5]
  Ki: 4200 nM
[6]
  clearance: 28 mL/min/kg
[11]
  IC50: > 10000 nM
[12]
  IC50: 1900 nM
[7]
  EC50: 67 nM
[13]
  EC50: > 25000 nM

## CCC(C)(C)Cc1cnc(CCc2ccc(-c3ccc(F)cn3)cc2)[nH]1
[1]
  IC50: 16 nM
[2]
  half-life: 3 min
[6]
  clearance: 12 mL/min/kg

## CC(C)(C)Cc1c[nH]c(CC(C)(O)c2ccc(-n3cccn3)cc2)n1 (stereo not drawn)
[1]
  IC50: 5 nM
[4]
  fraction unbound at 1 µM: 0.068
[6]
  clearance: 110 mL/min/kg
[7]
  EC50: 16 nM

## O[C@@](Cc1nc(CC2(C(F)(F)F)CC2)c[nH]1)(c1ccc(-n2cccn2)cc1)C(F)(F)F
[14]
  bioavailability: 18%
[15]
  bioavailability: 64%
[8]
  clearance: 5.6 mL/min/kg
Mus musculus [16]
  Activity: Active
[17]
  IC50: 6.5 nM
  Ki: 9.9 nM
[18]
  Vd: 2.2 L/kg
[1]
  IC50: 27 nM
  Ki: 3.7 nM
[19]
  EC50: 6.9 nM
[9]
  half-life: 84 min
[20]
  clearance: 32 mL/min/kg
Mus musculus [21]
  Activity: inactive
Mus musculus [22]
  Activity: 8%
[23]
  EC50: 2.2 nM
[24]
  EC50: 1.6 nM
[25]
  clearance: 8.8 mL/min/kg
[26]
  bioavailability: 9.6%
[4]
  fraction unbound at 1 µM: 0.01
[27]
  Emax: 110%
[5]
  Ki: > 8000 nM
Mus musculus [28]
  Activity: Active
[6]
  clearance: 20 mL/min/kg
[29]
  Vd: 0.45 L/kg
[10]
  bioavailability: 52%
[30]
  half-life: 60 min
Mus musculus [31]
  Activity: inactive
[32]
  half-life: 42 min
[33]
  IC50: 5.4 nM
  Ki: 1.6 nM
[7]
  EC50: 14 nM
[34]
  IC50: 50 nM
  Ki: 2.4 nM
Mus musculus [35]
  Activity: Active
[36]
  Emax: 100%
[37]
  Vd: 0.44 L/kg
[38]
  EC50: 21 nM
[39]
  half-life: 66 min
[40]
  IC50: 1.2 nM
  Ki: 0.6 nM
[41]
  Vd: 0.98 L/kg
